Measured values reported in EP0184291B1, “Polyether antibiotic A80190” (ELI LILLY AND COMPANY, priority 1984, dated 1986).
Values after ≈ are worked out from the molar mass of the structure shown.

What was measured:
[1] = system: Propionibacterium acnes 79; assay: Agar-dilution assay, anaerobic bacteria; format: cell-based; details: Cutibacterium acnes, 24-hour incubation
Description: (§1) One important aspect of the antimicrobial activity of A80190 compounds relates to their activity against anaerobic bacteria. The minimal inhibitory concentrations (MIC's) at which A80190 inhibits various anaerobic bacteria, as determined by standard agar-dilution assay, are summarized in Table VII. End points were read after 24-hour incubation.

[2] = system: Eubacterium aerofaciens 1235; assay: Agar-dilution assay, anaerobic bacteria; format: cell-based; details: Collinsella aerofaciens, 24-hour incubation
Description: as §1

[3] = system: Bacteroides melaninogenicus 2736; assay: Agar-dilution assay, anaerobic bacteria; format: cell-based; details: 24-hour incubation
Description: as §1

[4] = system: Clostridium difficile 2994; assay: Agar-dilution assay, anaerobic bacteria; format: cell-based; details: Clostridioides difficile, 24-hour incubation
Description: as §1

[5] = system: Peptostreptococcus anaerobius 1428; assay: Agar-dilution assay, anaerobic bacteria; format: cell-based; details: 24-hour incubation
Description: as §1

[6] = system: Bacteroides thetaiotaomicron 1438; assay: Agar-dilution assay, anaerobic bacteria; format: cell-based; details: 24-hour incubation
Description: as §1

[7] = system: Fusobacterium symbiosum 1470; assay: Agar-dilution assay, anaerobic bacteria; format: cell-based; details: 24-hour incubation
Description: as §1

[8] = system: Bacteroides fragilis 1877; assay: Agar-dilution assay, anaerobic bacteria; format: cell-based; details: 24-hour incubation
Description: as §1

[9] = system: Bacteroides melaninogenicus 1856/28; assay: Agar-dilution assay, anaerobic bacteria; format: cell-based; details: Prevotella intermedia, 24-hour incubation
Description: as §1

[10] = system: Clostridium septicum 1128; assay: Agar-dilution assay, anaerobic bacteria; format: cell-based; details: 24-hour incubation
Description: as §1

two-spotted spider mite = assay: Acaricidal activity; format: in vivo; details: Tetranychus urticae; read-out: active when applied at a rate as low as
Source text: The A80190 compounds are also useful as insecticides and acaricides. For example, A80190 is active against the following insects as levels as low as the level indicated in parenthesis: mosquito larvae (<50 ppm), blowfly larvae (35 ppm), adult housefly (35 ppm), and Mexican bean beetle and southern armyworm (<100 ppm). A80190 is also active against mites such as two-spotted spider mite when applied at a rate as low as 25 ppm.

[11] = system: Clostridium perfringens 81; assay: microbe, parasite or virus in culture; format: cell-based; details: Clostridium perfringens, 81, 24 h
Staphylococcus aureus = assay: Disc-diffusion method; format: cell-based; details: 6-mm pads dipped in 1 mg of compound per ml, read-out: Zone of Inhibition (mm diameter)
Description: (§2) The inhibitory activity of A80190 is illustrated in Table VI. Activity was measured by the conventional disc-diffusion method (6-mm pads were dipped in solutions containing 1 mg of compound per ml of solution; pads were placed on agar plates seeded with test organism).

Candida albicans = assay: Disc-diffusion method; format: cell-based; details: 6-mm pads dipped in 1 mg of compound per ml, read-out: Zone of Inhibition (mm diameter)
Description: as §2

[12] = system: Saccharomyces pastorianus; assay: Disc-diffusion method; format: cell-based; details: 6-mm pads dipped in 1 mg of compound per ml, read-out: Zone of Inhibition (mm diameter)
Description: as §2

Neurospora crassa = assay: Disc-diffusion method; format: cell-based; details: 6-mm pads dipped in 1 mg of compound per ml, read-out: Zone of Inhibition (mm diameter)
Description: as §2

Mycobacterium avium = assay: Disc-diffusion method; format: cell-based; details: 6-mm pads dipped in 1 mg of compound per ml, read-out: Zone of Inhibition (mm diameter)
Description: as §2

Bacillus subtilis = assay: Disc-diffusion method; format: cell-based; details: 6-mm pads dipped in 1 mg of compound per ml, read-out: Zone of Inhibition (mm diameter)
Description: as §2

Micrococcus luteus = assay: Disc-diffusion method; format: cell-based; details: 6-mm pads dipped in 1 mg of compound per ml, read-out: Zone of Inhibition (mm diameter)
Description: as §2

Solubility = format: physicochemical

Structure (SMILES): CC[C@@H](O)[C@]1(C)C[C@H](C)[C@@](O)([C@H]2C[C@H](C)[C@H]([C@]3(C)C[C@@H](O[C@H]4CC[C@H](OC)[C@@H](C)O4)[C@H]([C@@H]4CC[C@@]5(O[C@H]([C@@H](C)[C@@H](OC)[C@H](C)C(=O)O)[C@H](C)[C@@H](OC)[C@H]5C)O4)O3)O2)O1 [Example A80190]
- MIC [1]: 1 µg/mL (≈ 1.21 µM)
- MIC [2]: < 0.5 µg/mL
- MIC [3]: > 128 µg/mL
- MIC [4]: < 0.5 µg/mL
- MIC [5]: 1 µg/mL (≈ 1.21 µM)
- MIC [6]: > 128 µg/mL
- MIC [7]: 8 µg/mL (≈ 9.65 µM)
- MIC [8]: > 128 µg/mL
- MIC [9]: > 128 µg/mL
- MIC [10]: < 0.5 µg/mL
- minimal effective concentration (two-spotted spider mite): 25 µg/mL
- MIC [11]: < 0.5 µg/mL
- zone of inhibition at 1000 µg/mL (Staphylococcus aureus): 17 mm
- zone of inhibition at 1000 µg/mL (Candida albicans): 14 mm
- zone of inhibition at 1000 µg/mL [12]: 10 mm
- zone of inhibition at 1000 µg/mL (Neurospora crassa): 14 mm
- zone of inhibition at 1000 µg/mL (Mycobacterium avium): 21 mm
- zone of inhibition at 1000 µg/mL (Bacillus subtilis): 23 mm
- zone of inhibition at 1000 µg/mL (Micrococcus luteus): 20 mm
- Solubility (Solubility; lower alcohols such as methanol, ketones such as acetone, esters such as ethyl acetate, halogenated hydrocarbons such as chloroform, diethyl ether, benzene, toluene, warm hexane): soluble
- Solubility (Solubility; water): Insoluble
